{"source": "patent US6737383B1", "about": "“Herbicidal oxadiazolidines” (priority 1999, dated 2004)", "key": {"rice": {"system": "rice", "test": "Test B flood test rice", "format": "in vivo, Oryza sativa", "experimental": "At the same time, these crop and weed species were also treated with postemergence applications of test chemicals formulated in the same manner. Plants ranged in height from 2 to 18 cm (1- to 4-leaf stage) for postemergence treatments. Plant species in the flood test consisted of rice (Oryza sativa), smallflower flatsedge (Cyperus difformis), duck salad (Heteranthera limosa) and bamyardgrass (Echinochloa crus-galli) grown to the 2-leaf stage for testing. Treated plants and controls were maintained in a greenhouse for twelve to sixteen days, after which all species were compared to controls and visually evaluated. Plant response ratings, summarized in Table B, are based on a scale of 0 to 10 where 0 is no effect and 10 is complete control. A dash (−) response means no test result."}, "smallflower flatsedge": {"system": "smallflower flatsedge", "test": "Test B flood test smallflower flatsedge", "format": "in vivo, Cyperus difformis", "outline": "(§1)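 Read-out is a visual response score from 0 (no effect) to 10 (complete control), assigned by comparison with untreated controls. Treatment was applied at the 2-leaf stage, and plants stayed in the greenhouse for twelve to sixteen days before scoring.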"}, "duck salad": {"system": "duck salad", "test": "Test B flood test duck salad", "format": "in vivo, Heteranthera limosa", "outline": "as §1"}, "bamyardgrass": {"system": "bamyardgrass", "test": "Test B flood test barnyardgrass", "format": "in vivo, Echinochloa crus-galli", "outline": "as §1"}, "[1]": {"details": "Pre-emergence, Rate 62 g/ha, scale 0 to 10, 0 is no effect, 10 is complete control"}, "[2]": {"details": "Rate 125 g/ha, Pre-emergence section (flood test species), scale 0 to 10, 0 no effect, 10 complete control"}, "[3]": {"details": "Rate 500 g/ha, Pre-emergence section of Table B, 0 to 10 scale (0 no effect, 10 complete control)"}}}
{"smiles": "CC(C)N(C(=O)n1oc(=O)n(C2CC=CCC2)c1=O)c1ccc(F)cc1", "note": "(stereo not drawn) [Compound 793]", "values": [{"measurement": "Rice plant response rating", "setting": "rice; [1]", "result": 0}, {"measurement": "Rice plant response rating", "setting": "rice; [2]", "result": 0}, {"measurement": "Rice plant response rating", "setting": "rice; [3]", "result": 0}, {"measurement": "S. Flatsedge plant response rating", "setting": "smallflower flatsedge; [1]", "result": 6}, {"measurement": "S. Flatsedge plant response rating", "setting": "smallflower flatsedge; [2]", "result": 7}, {"measurement": "S. Flatsedge plant response rating", "setting": "smallflower flatsedge; [3]", "result": 8}, {"measurement": "Ducksalad plant response rating", "setting": "duck salad; [1]", "result": 6}, {"measurement": "Ducksalad plant response rating", "setting": "duck salad; [2]", "result": 7}, {"measurement": "Ducksalad plant response rating", "setting": "duck salad; [3]", "result": 8}, {"measurement": "Barnyardgrass plant response rating", "setting": "bamyardgrass; [1]", "result": 0}, {"measurement": "Barnyardgrass plant response rating", "setting": "bamyardgrass; [2]", "result": 0}, {"measurement": "Barnyardgrass plant response rating", "setting": "bamyardgrass; [3]", "result": 0}]}
